PMC7855930, “Nontoxic Cobalt(III) Schiff Base Complexes with Broad‐Spectrum Antifungal Activity” (Chemistry (Weinheim an Der Bergstrasse, Germany), 2020)
Like-named read-outs stand apart in the source and are kept apart here.

Tests used:
[1] = tested on: HEK293 cells; assay: Cytotoxicity assay (resazurin); assay type: cell-based, human; details: 20 h incubation, 0.8–100 μM; read-out: Tox CC50 (cytotoxicity against HEK293 cells)
Protocol: (§1) Cytotoxicity assay: HEK293 ATCC CRL‐1573 human embryonic kidney cells suspended in DMEM media (Gibco; 11330332) supplemented with 10 % FBS (GE; SH30084.03) and 100 U mL^−1 each penicillin/streptomycin (Invitrogen; 15070063) were counted manually in a Neubauer haemocytometer and seeded into 384‐well, black wall, clear bottom tissue culture plates (Corning; Cat. No. 3712) at 5000 cells per well in a volume of 20 μL. Manually, 20 μL of each compound dilution was plated in duplicate on the cells, for a final concentration range of 0.8–100 μM. The cells were incubated together with the compounds for 20 h at 37 °C, 5 % CO2.
(§2) Cytotoxicity (or cell viability) was measured by fluorescence, ex: 560/10 nm, em: 590/10 nm (F560/590), after addition of 5 μL of 25 μg mL^−1 resazurin ([…]; Sigma R7017) and after further incubation for 3 h at 37 °C in 5 % CO2, using media only as negative control and cells without inhibitors as positive control. CC50 (concentration at 50 % cytotoxicity) were calculated by curve fitting the inhibition values vs. log(concentration) of four replicates using a sigmoidal dose‐response function, with variable fitting values for bottom, top and slope using Prism 8. Tamoxifen (Sigma T5648) was used as internal control on each plate.

[2] = tested on: Acinetobacter baumannii ATCC 19606; assay: CO-ADD bacterial broth microdilution MIC assay; assay type: cell-based; details: CAMHB, 37 °C, 18 h, ≥ 80% inhibition; for MIC: Acinetobacter baumannii, ATCC19606, read-out: MIC Ab (Acinetobacter baumannii ATCC 19606)
[3] = tested on: Pseudomonas aeruginosa ATCC 27853; assay: CO-ADD bacterial broth microdilution MIC assay; assay type: cell-based; details: CAMHB, 37 °C, 18 h, ≥ 80% inhibition; for MIC: Pseudomonas aeruginosa, ATCC27853, read-out: MIC Pa (Pseudomonas aeruginosa ATCC 27853)
[4] = tested on: Staphylococcus aureus ATCC 43300 (MRSA); assay: CO-ADD bacterial broth microdilution MIC assay; assay type: cell-based; details: for MIC Sa (Staphylococcus aureus ATCC 43300, MRSA) / MIC: CAMHB, 37 °C, 18 h, ≥ 80% inhibition; for MIC: Staphylococcus aureus, read-out: MIC Sa (Staphylococcus aureus ATCC 43300, MRSA)
[5] = tested on: Klebsiella pneumoniae ATCC 700603 (K6; ESBL SHV-18); assay type: cell-based; details: 18 h
Protocol: (§3) CO-ADD High Throughput Screening
(§4) Bacterial broth microdilution minimum inhibitory concentration (MIC) assay Bacterial strains were cultured in Cation-adjusted Mueller Hinton broth (CAMHB; Bacto Laboratories 212322) at 37 °C overnight. A sample of each culture was then diluted 40-fold in fresh CAMHB and incubated at 37 °C for 1.5-3 h. The resultant mid-log phase cultures were diluted with CAMHB (CFU/mL measured by OD600), then added to each well of the compound-containing plates (384-well non-binding surface (NBS) plates; Corning CLS3640), giving a cell density of 5 × 10^5 CFU/mL and a total volume of 50 µL. Plates were covered and incubated at 37 °C for 18 h without shaking. Inhibition of bacterial growth was determined measuring absorbance at 600 nm (OD600), using media only as negative control and bacteria without inhibitors as positive control. MIC values were determined as the lowest concentration at which the growth was inhibited at ≥ 80%. Colistin sulfate (Sigma C4461) and vancomycin HCl (Sigma 861987) were used as positive inhibitor controls on each plate for Gram-negative and Gram-positive bacteria, respectively.
(§5) Figure S1. 1H NMR (400 MHz) of [Co(ATS)(DMAP)2]NO3 (3) in DMSO-d6.
(§6) (1 picture or pasted object on this page, not shown here)

[6] = Cyclic voltammetry; assay type: physicochemical; details: DMF with 0.1 M TBAP (this work)
Protocol: Cyclic voltammetry: Electrochemical measurements were carried out in the same manner as reported previously. ^[25b] Experiments were conducted using a Pine WaveNow potentiostat with a three‐electrode setup consisting of a glassy carbon working electrode, a platinum counter electrode, and an Ag wire quasi‐reference electrode. Complexes were dissolved in anhydrous DMF with 0.10 M [Bu4N][PF6] (TBAP) as the supporting electrolyte. Potentials were referenced using an internal standard of the ferrocene/ferricenium couple at 0.45 V vs. the saturated calomel electrode (SCE). ^[33] The sample cell was deoxygenated by bubbling nitrogen gas through the solution prior to analysis and maintained under a blanket of nitrogen during the experiment.

[7] = Stability in water by 1H NMR (axial ligand exchange); assay type: physicochemical; details: room temperature
Text: Because our previous results had shown that complexes bearing weak axial donors are more biologically active, we sought to synthesise a very labile Co^III‐bis(thiosemicarbazone) complex by using a weakly donating pyridine axial monodentate ligand. We were unable to synthesise a complex using unsubstituted pyridine, probably because it is a such a weak donor ligand that it will not remain bound to the Co^III center even briefly, preventing isolation of the complex. However, we were able to isolate a complex (3) bearing the more electron‐donating 4‐(dimethylamino)pyridine (DMAP) ligand in the axial positions. As expected, this complex is extremely labile. […] In our hands, the bis‐aqua complex could not be isolated.

[8] = tested on: C. albicans; assay: CO-ADD screening, broth microdilution MIC, yeast reference strain; assay type: cell-based
Text: (§7) As previously mentioned, complexes 1, 2 and 4 were studied in earlier biological assays. […] In our CO‐ADD screening, using broth microdilution (BMD) MIC assays (Table S2), complexes 1–3 were effective at killing drug‐susceptible yeast reference strains of C. albicans and C. neoformans while displaying no antibacterial activity.

[9] = tested on: C. neoformans; assay: as above; assay type: cell-based
Text: as §7

[10] = tested on: CO-ADD bacterial panel; assay: CO-ADD bacterial panel, overall antibacterial activity; assay type: cell-based; details: CO‐ADD screening, Table S2
Protocol: as §3, §4, §5, §6

[11] = Cytotoxicity assay (resazurin); assay type: cell-based, human; details: human, HEK293 cells (ATCC CRL-1573); 20 h incubation, 0.8–100 μM; read-out: Tox CC50 (cytotoxicity against HEK293 cells)
Protocol: as §1, §2

Row | Compound | CC50 [1] [µM] | MIC Ab (Acinetobacter baumannii ATCC 19606) [2] [µg/mL] | MIC Pa (Pseudomonas aeruginosa ATCC 27853) [3] [µg/mL] | MIC Sa (Staphylococcus aureus ATCC 43300, MRSA) [4] [µg/mL] | MIC Kp (Klebsiella pneumoniae ATCC 700603) ([5]; CAMHB, 37 °C, ≥ 80% inhibition) [µg/mL] | MIC Kp (Klebsiella pneumoniae ATCC 700603) [5] [µg/mL] | First reduction E pc [6] [V vs. SCE] | Second reduction E 1/2 [6] [V vs. SCE] | Stability on dissolution in water ([7]; 1H NMR, on dissolution) | Stability in water overnight ([7]; incubation overnight) | Antifungal activity, C. albicans reference strain [8] | Antifungal activity, C. neoformans reference strain [9] | Antibacterial activity [10] | CC50 at 20 h [11] [µM] | MIC [2] [µg/mL] | MIC [3] [µg/mL] | MIC [4] [µg/mL] | MIC methicillin‐resistant S. aureus (MRSA) ([4]; value in μM given in brackets in the text) [µM]
1 | O=[N+]([O-])[O-].O=[N+]([O-])[O-].[Co+2] [Co, Co(NO3)2, reference compound] | > 100 | > 32 | > 32 | > 32 | > 32 |  |  |  |  |  |  |  |  |  |  |  |  | 
2 | CC1=[N+]2N=C(N)[S][Co-3]23([n+]2ccc(N(C)C)cc2)([n+]2ccc(N(C)C)cc2)[S]C(N)=N[N+]3=C1C.O=[N+]([O-])[O-] [Compound 3, [Co(ATS)(DMAP)2]NO3] | > 100 | > 32 | > 32 | > 32 |  | > 32 | −0.69 | −1.17 | immediately yields a mixture of species | totally converted into the bis‐aqua complex |  |  |  |  |  |  |  | 
3 | O=[N+]([O-])[O-].[NH3+][Co-3]123([NH3+])[O]c4c(F)cccc4C=[N+]1c1ccccc1[N+]2=Cc1cccc(F)c1[O]3 [Compound 7, [Co(3F‐salophen)(NH3)2]NO3] | > 100 | > 32 | > 32 | > 32 |  | > 32 | −0.75 | −1.08 |  |  | neither antibacterial nor antifungal activity | neither antibacterial nor antifungal activity | neither antibacterial nor antifungal activity |  |  |  |  | 
4 | CC(=N\NC(N)=S)/C(C)=N/NC(N)=S [Compound L1] |  |  |  |  |  | > 32 |  |  |  |  |  |  |  | > 100 | > 32 | > 32 | > 32 | 
5 | CC(/C=C(\O)C(F)(F)F)=N\CC/N=C(C)/C=C(\O)C(F)(F)F [Compound L2] |  |  |  |  |  | > 32 |  |  |  |  |  |  |  | > 100 | > 32 | > 32 | > 32 | 
6 | Oc1c(F)cccc1/C=N/CC/N=C/c1cccc(F)c1O [Compound L3] |  |  |  |  |  | > 32 |  |  |  |  |  |  |  | > 100 | > 32 | > 32 | > 32 | 
7 | [Co(3F‐salophen)(3F‐BnNH2)2]NO3 [Compound 6] | > 100 | > 32 | > 32 | 8 |  | > 32 | −0.59 | −1.06 |  |  |  |  |  |  |  |  |  | 11.5
